Here are results for three molecules from paper PMC11369174, “Proteome-scale characterisation of motif-based interactome rewiring by disease mutations” (Molecular Systems Biology, 2024).

By Kd is commonly meant the constant that tells how readily two partners part at equilibrium.

Holding throughout (settings): domain titrated to 10 nM FITC-peptide, 50 mM sodium phosphate pH 7.4, 0.05% Tween, quadratic fit, technical triplets, read-out: KD [µM] + SE
The target of assay [1] is KPNA4 ARM minor (Homo sapiens, UniProt O00629). The assay is described as follows: FP saturation binding, KPNA4 ARM (minor).
KPNA4 ARM minor, sequence (O00629 68-487): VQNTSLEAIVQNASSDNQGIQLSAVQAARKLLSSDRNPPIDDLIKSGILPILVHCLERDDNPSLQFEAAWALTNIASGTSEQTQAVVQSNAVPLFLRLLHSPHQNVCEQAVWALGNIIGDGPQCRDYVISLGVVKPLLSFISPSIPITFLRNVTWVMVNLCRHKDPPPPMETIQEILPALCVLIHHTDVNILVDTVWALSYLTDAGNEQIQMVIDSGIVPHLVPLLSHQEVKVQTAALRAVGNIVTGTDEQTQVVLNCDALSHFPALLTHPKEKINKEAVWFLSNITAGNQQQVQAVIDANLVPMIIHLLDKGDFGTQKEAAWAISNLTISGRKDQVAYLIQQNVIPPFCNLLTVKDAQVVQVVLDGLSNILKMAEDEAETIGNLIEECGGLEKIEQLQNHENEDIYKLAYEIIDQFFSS
Assay [2] has as its target KPNA7 ARM (minor) (Homo sapiens, UniProt A9QM74). As to the kind of experiment: FP saturation binding, KPNA7 ARM (minor).
Assay [3] has as its target CREBBP KIX (Homo sapiens, UniProt Q92793). The assay is described as follows: FP saturation binding, CREBBP KIX.
The target in assay [4] is T1, Clathrin NTD (Homo sapiens, UniProt Q00610).
T1 sequence (Q00610 1-364): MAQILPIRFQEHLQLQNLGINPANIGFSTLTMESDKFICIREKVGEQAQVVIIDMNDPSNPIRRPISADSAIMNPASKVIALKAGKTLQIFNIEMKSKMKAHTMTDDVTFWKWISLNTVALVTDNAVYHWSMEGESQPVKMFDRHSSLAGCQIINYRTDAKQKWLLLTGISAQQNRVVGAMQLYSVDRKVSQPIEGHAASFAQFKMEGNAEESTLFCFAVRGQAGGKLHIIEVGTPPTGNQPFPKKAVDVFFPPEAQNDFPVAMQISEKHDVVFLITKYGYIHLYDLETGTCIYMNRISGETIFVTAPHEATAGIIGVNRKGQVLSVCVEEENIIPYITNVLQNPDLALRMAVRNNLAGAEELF
As to the kind of experiment: FP saturation binding, Clathrin NTD.
Procedure: In order to calculate the FP signal in millipolarisation (mP), the FITC-labelled peptides were excited at 485 nm and the emitted light was measured at 535 nm in two different angles. For saturation experiments, a dilution series of the respective protein domains was generated (25 µL) and 10 nM fluorescein isothiocyanate (FITC)-labelled peptide (diluted in 50 mM sodium phosphate buffer pH 7.4, 0.05% Tween) were added in an end volume of 50 µL. A control experiment titrating GST was performed for the binding of the NEDD4 WW2 domain, since the GST-tagged construct was used for affinity measurements. For fitting the data, the buffer-corrected reduced values were plotted in GraphPad PRISM against the respective protein concentration and the KD-values were obtained by fitting against the quadratic equation (Gianni et al, [2005]).

Each structure is given as a SMILES string. Where a SMILES comes first, the peptide text is derived from it. The star is where a group is joined. FITC = O=C1OC2(c3ccc(O)cc3Oc3cc(O)ccc32)c2ccc(NC(=S)*)cc21

KPNA7 ARM (minor), sequence (A9QM74 58-488 limits assumed): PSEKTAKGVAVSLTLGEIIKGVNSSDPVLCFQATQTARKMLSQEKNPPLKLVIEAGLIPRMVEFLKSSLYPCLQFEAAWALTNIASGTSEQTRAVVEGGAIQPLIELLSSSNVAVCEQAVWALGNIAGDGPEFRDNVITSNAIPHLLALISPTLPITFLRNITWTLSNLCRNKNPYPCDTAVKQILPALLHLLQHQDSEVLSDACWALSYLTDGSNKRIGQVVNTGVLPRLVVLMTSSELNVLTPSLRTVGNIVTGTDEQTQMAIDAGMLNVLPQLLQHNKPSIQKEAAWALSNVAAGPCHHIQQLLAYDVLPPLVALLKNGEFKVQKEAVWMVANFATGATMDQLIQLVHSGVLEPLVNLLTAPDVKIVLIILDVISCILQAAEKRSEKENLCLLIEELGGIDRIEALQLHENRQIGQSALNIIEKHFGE
CREBBP KIX, sequence (Q92793 587-673): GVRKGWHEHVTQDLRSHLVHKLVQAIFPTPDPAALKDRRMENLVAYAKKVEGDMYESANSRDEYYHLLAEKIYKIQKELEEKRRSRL

On to `CC[C@H](C)[C@H](NC(=O)[C@H](C)NC(=O)[C@H](CCCNC(=N)N)NC(=O)CNC(=O)[C@@H](NC(=O)[C@H](CCCNC(=N)N)NC(=O)CNC(=O)[C@H](CCC(=O)O)NC(=O)[C@H](CCSC)NC(=O)[C@H](CCSC)NC(=O)[C@H](CC(=O)O)NC(=O)[C@H](Cc1ccc(O)cc1)NC(=O)[C@@H](NC(=O)[C@H](CCCNC(=N)N)NC(=O)[C@H](CCCCN)NC(=O)[C@@H]1CCCN1C(=S)Nc1ccc2c(c1)C(=O)OC21c2ccc(O)cc2Oc2cc(O)ccc21)[C@@H](C)O)C(C)C)C(N)=O` [FITC-NCOR2] ({FITC}-PKRTYDMMEGRVGRAI-NH2), for which the equilibrium dissociation constant (Kd) in assay [1] stood at 0.03 ± 0.002 µM; in assay [2] it was 57 ± 9 µM. On to `CC(C)C[C@H](NC(=O)[C@H](CC(C)C)NC(=O)[C@H](CC(=O)O)NC(=O)[C@H](CO)NC(=O)[C@H](CC(C)C)NC(=O)[C@H](CCC(=O)O)NC(=O)[C@H](CCCCN)NC(=O)[C@H](CC(=O)O)NC(=S)Nc1ccc2c(c1)C(=O)OC21c2ccc(O)cc2Oc2cc(O)ccc21)C(=O)N[C@@H](CC(=O)O)C(=O)N[C@@H](Cc1ccccc1)C(=O)N[C@@H](CO)C(N)=O` [FITC-TCF3] ({FITC}-DKELSDLLDFS-NH2), for which the dissociation constant Kd in assay [3] amounted to 35 ± 4 µM. On to `CC[C@H](C)[C@H](NC(=O)[C@H](CC(C)C)NC(=O)[C@H](CC(=O)O)NC(=O)[C@@H](NC(=O)[C@H](CO)NC(=S)Nc1ccc2c(c1)C(=O)OC21c2ccc(O)cc2Oc2cc(O)ccc21)C(C)C)C(=O)N[C@H](C(=O)N[C@@H](Cc1ccccc1)C(=O)N[C@@H](CC(=O)O)C(=O)N[C@@H](CO)C(=O)N[C@H](C(N)=O)C(C)C)[C@@H](C)O` [FITC-NSP3] ({FITC}-SVDLITFDSV-NH2), for which, in assay [4], the dissociation constant (Kd) came out at 21 ± 3 µM.
